The values below come from ChEMBL document CHEMBL1201862, “PubChem BioAssay data set” (2004).

SMILES strings stand for the structures.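 Dose response: 5 concentrations. Exposure: 48 h. Format: 96-well plates. Endpoint: linear interpolation; highest concentration if not reached. GI50 = concentration required for 50% inhibition of growth.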 The source made the active and inactive calls. Rule as the data show it: active = GI50 up to about 1.1 µM and inactive = higher.

Among the test systems are MDA-N; RXF 393; COLO 205; UACC-257; MCF7; OVCAR-3; EKVX; SK-OV-3; SN12C; LOX IMVI; MOLT-4; TK-10; KM12; 786-0; SF-295; Malme-3M; Hs-578T; UO-31; NCI-H522.
Holding throughout (test): inhibition of tumour cell growth, NCI panel, 48 h

On to `O=S(=O)(O)c1cc(/N=N/c2cccc3ccccc23)c(O)c2ncccc12`, for which the GI50 in the assay with MDA-N is 58.3 µM (inactive); with RXF 393, 62.8 µM (inactive); in the assay on COLO 205, 33.4 µM (inactive); in the assay on UACC-257, 64.4 µM (inactive); in the assay on MCF7, 23.7 µM (inactive); with OVCAR-3 it was 22.5 µM (inactive). For the same molecule, the GI50 is 30.5 µM (inactive) in the assay on EKVX; > 100 µM (inactive) in the assay on SK-OV-3; 60 µM (inactive) with SN12C; 60.8 µM (inactive) in the assay on LOX IMVI; 26.9 µM (inactive) with MOLT-4; > 100 µM (inactive) with TK-10. Besides, the GI50 in the assay on KM12 was 80.2 µM (inactive); with 786-0 it was 38.7 µM (inactive); with SF-295, > 100 µM (inactive).
Regarding `O=C1CCCCC1=C(I)I`, the GI50 in the assay on MDA-N was 16.9 µM (inactive); in the assay with RXF 393 it was 16.2 µM (inactive); with COLO 205, 15.3 µM (inactive); in the assay with Malme-3M, 14.3 µM (inactive); in the assay with OVCAR-3, 16.3 µM (inactive); with EKVX, 1.88 µM (inactive). For the same molecule, the GI50 in the assay with SK-OV-3 was 22.6 µM (inactive); in the assay on SN12C, 23.7 µM (inactive); in the assay with Hs-578T, 63 µM (inactive); with UO-31, 16.7 µM (inactive); in the assay on MOLT-4, 17.9 µM (inactive); in the assay with KM12, 15.5 µM (inactive). Further, the results for the GI50 in the assay on 786-0 and in the assay with SF-295 were 16.5 µM (inactive) and 24.8 µM (inactive), respectively.
In the case of `Cc1nnc2sc(Cc3cnc(N)s3)nn12`, the GI50 with RXF 393, in the assay with COLO 205, with UACC-257, in the assay with MCF7, with Malme-3M and in the assay with EKVX was > 100 µM (inactive) each time. Moreover, the GI50 in the assay on SK-OV-3, in the assay with SN12C, with Hs-578T, with UO-31, in the assay with MOLT-4 and in the assay with TK-10 was > 100 µM (inactive) each time. For the same molecule, the GI50 with KM12, in the assay on 786-0 and in the assay on NCI-H522 was > 100 µM (inactive) each time.
For the molecule `COc1nc2c(c(=O)n1C)N=C(c1ccc(Cl)cc1)CC(c1ccccc1)N2` (stereo not given), the GI50 in the assay on MDA-N is 18.8 µM (inactive); in the assay on RXF 393, 22.5 µM (inactive); in the assay with COLO 205 it was 36 µM (inactive); in the assay on UACC-257, 26.5 µM (inactive); in the assay with MCF7, 14.8 µM (inactive); with OVCAR-3 it was 35.1 µM (inactive). Also, the GI50 is 21.5 µM (inactive) with EKVX; 41.5 µM (inactive) in the assay with SK-OV-3; 21.7 µM (inactive) in the assay on SN12C; 21.2 µM (inactive) with LOX IMVI; 33.5 µM (inactive) in the assay on UO-31; 17.6 µM (inactive) in the assay with MOLT-4. Also, the GI50 with KM12 was 16.7 µM (inactive); with 786-0, 33.8 µM (inactive); with SF-295, 18.8 µM (inactive); in the assay on NCI-H522, 17.9 µM (inactive).
As to `N#Cc1ccc(/C=N/NC(=O)CSCC(=O)N/N=C/c2ccc(C#N)cc2)cc1`, the GI50 in the assay with RXF 393, in the assay on COLO 205, in the assay with UACC-257, with MCF7, in the assay on Malme-3M and with OVCAR-3 was > 100 µM (inactive) each time. Besides, the GI50 in the assay with EKVX, with SK-OV-3, with SN12C, with Hs-578T, with UO-31 and in the assay on MOLT-4 was > 100 µM (inactive) in each case. In addition, the GI50 in the assay with TK-10 was 56 µM (inactive); in the assay on KM12 it was > 100 µM (inactive); with 786-0 it was > 100 µM (inactive); in the assay with SF-295, > 100 µM (inactive); in the assay on NCI-H522, > 100 µM (inactive).
For `O=C1c2cccc3cc([N+](=O)[O-])cc(c23)C(=O)N1Nc1ccc([N+](=O)[O-])cc1[N+](=O)[O-]`, the GI50 is 23.3 µM (inactive) in the assay on RXF 393; 11.5 µM (inactive) with COLO 205; 13.3 µM (inactive) in the assay with UACC-257; 14.5 µM (inactive) in the assay with MCF7; 20.1 µM (inactive) with Malme-3M; 22.3 µM (inactive) in the assay with OVCAR-3. In addition, the GI50 with EKVX is 24.4 µM (inactive); in the assay on SK-OV-3, > 31.6 µM (inactive); in the assay on SN12C, 22.8 µM (inactive); in the assay on Hs-578T, > 31.6 µM (inactive); with LOX IMVI it was 10.5 µM (inactive); in the assay with UO-31 it was 12.1 µM (inactive). For the same molecule, the GI50 is 1.97 µM (inactive) with MOLT-4; 31.8 µM (inactive) in the assay on TK-10; 14.6 µM (inactive) in the assay on KM12; 13.6 µM (inactive) in the assay with 786-0; 27 µM (inactive) in the assay with SF-295; 11.6 µM (inactive) with NCI-H522.
Turning to `CCOc1cc(/C=C/C=C/C=C/c2ccc(N(C)C)cc2)[s+]c2ccccc12`, the GI50 in the assay with RXF 393 is 10 µM (inactive); in the assay with COLO 205 it was 41.1 µM (inactive); in the assay with UACC-257, 30.7 µM (inactive); with Malme-3M, 22.9 µM (inactive); with OVCAR-3, 14.4 µM (inactive); in the assay on EKVX it was > 100 µM (inactive). Further, the GI50 in the assay on SK-OV-3 is > 100 µM (inactive); in the assay with SN12C, 21.2 µM (inactive); in the assay with UO-31 it was 4.58 µM (inactive); with MOLT-4, 5.5 µM (inactive); in the assay on TK-10, 40.4 µM (inactive); in the assay on KM12 it was 10.1 µM (inactive). Also, the GI50 was 22.5 µM (inactive) in the assay with 786-0, 33.8 µM (inactive) with SF-295 and 4.56 µM (inactive) with NCI-H522.
As for `CC(C)=C[C@H]1CCC2(OCCO2)[C@]1(C)COCc1ccccc1`, the GI50 with MDA-N was 33.7 µM (inactive); with RXF 393, 5.98 µM (inactive); in the assay on COLO 205 it was 17.6 µM (inactive); in the assay with UACC-257 it was 16.4 µM (inactive); with MCF7, 41.3 µM (inactive); in the assay with Malme-3M, 23.9 µM (inactive). The GI50 in the assay with OVCAR-3 is 22 µM (inactive); in the assay on EKVX, 33 µM (inactive); in the assay on SK-OV-3, 32.4 µM (inactive); with SN12C, 24.5 µM (inactive); in the assay on LOX IMVI, 17.2 µM (inactive); in the assay with UO-31, 43.6 µM (inactive). Besides, the GI50 in the assay with MOLT-4 was 13.8 µM (inactive); in the assay with TK-10, 40.7 µM (inactive); in the assay on KM12 it was 33.7 µM (inactive); with 786-0, 31 µM (inactive); in the assay with SF-295 it was 40 µM (inactive); in the assay with NCI-H522 it was 29 µM (inactive).
With `Cc1ccc2c(c1)-c1nc(N)c(C#N)c(-c3ccccc3)c1CCS2(=O)=O`, the GI50 is > 100 µM (inactive) with MDA-N; > 100 µM (inactive) with COLO 205; 44.9 µM (inactive) with UACC-257; 23.8 µM (inactive) with Malme-3M; 29.5 µM (inactive) in the assay with OVCAR-3; 41.4 µM (inactive) in the assay on SN12C. The GI50 in the assay on Hs-578T is 20.8 µM (inactive); with LOX IMVI it was > 100 µM (inactive); in the assay on UO-31 it was > 100 µM (inactive); in the assay with TK-10, 23.7 µM (inactive); in the assay with KM12, > 100 µM (inactive); with 786-0, 19 µM (inactive). Further, in the assay on NCI-H522, the GI50 is 39.2 µM (inactive).
`O=C(O)CCSC(=O)Nc1cccc([N+](=O)[O-])c1`: the GI50 is > 100 µM (inactive) in the assay on RXF 393; > 100 µM (inactive) in the assay on COLO 205; > 100 µM (inactive) in the assay on UACC-257; > 100 µM (inactive) in the assay with OVCAR-3; > 100 µM (inactive) with EKVX; 94.6 µM (inactive) in the assay with SN12C. In addition, the GI50 is 66.7 µM (inactive) in the assay on LOX IMVI; 63 µM (inactive) with UO-31; 43.7 µM (inactive) with MOLT-4; > 100 µM (inactive) with TK-10; > 100 µM (inactive) with KM12; > 100 µM (inactive) in the assay on 786-0. For the same molecule, the GI50 in the assay on SF-295 was > 100 µM (inactive).
In the case of `COc1cc2c(/C=C3/C(=O)Nc4ccc(Cl)cc43)c(Cl)[nH]c2cc1C`, the GI50 was 0.375 µM (active) with RXF 393; 0.352 µM (active) with COLO 205; 0.553 µM (active) in the assay with UACC-257; 0.489 µM (active) in the assay on MCF7; 0.82 µM (active) in the assay on Malme-3M; 0.356 µM (active) in the assay with OVCAR-3. In addition, the GI50 in the assay with SK-OV-3 was 0.284 µM (active); in the assay on SN12C it was 0.325 µM (active); with Hs-578T, 0.327 µM (active); in the assay on LOX IMVI, 0.738 µM (active); in the assay with UO-31 it was 1.34 µM (inactive); with MOLT-4, 0.294 µM (active). Further, the GI50 was 1.05 µM (active) in the assay on TK-10; 0.416 µM (active) with KM12; 0.731 µM (active) with 786-0; 0.356 µM (active) in the assay with SF-295; 2.16 µM (inactive) with NCI-H522.
For `CCOC(=O)C(NC(=O)c1nc[nH]c1[N+](=O)[O-])C(C)C` (stereo not given), the GI50 was 82 µM (inactive) in the assay on COLO 205; 94.8 µM (inactive) in the assay with UACC-257; > 100 µM (inactive) in the assay on Malme-3M; > 100 µM (inactive) in the assay on OVCAR-3; 94 µM (inactive) in the assay on EKVX; > 100 µM (inactive) in the assay with SK-OV-3. Also, the GI50 with SN12C is > 100 µM (inactive); in the assay with LOX IMVI it was > 100 µM (inactive); with UO-31, > 100 µM (inactive); in the assay on MOLT-4 it was 72.4 µM (inactive); in the assay with KM12, > 100 µM (inactive); with 786-0, 71.1 µM (inactive). Also, the GI50 with SF-295 is 47.9 µM (inactive); with NCI-H522 it was > 100 µM (inactive).
Take `O=C1CC23CCCCCCCCCCC2(C1)CC(=O)C3` (stereo not given): the GI50 with RXF 393 was 25.4 µM (inactive); in the assay with COLO 205 it was 18.4 µM (inactive); with UACC-257, 34.8 µM (inactive); in the assay on Malme-3M, 24.6 µM (inactive); with OVCAR-3, 17.7 µM (inactive); in the assay with EKVX, 30.1 µM (inactive). The GI50 in the assay with SK-OV-3 is 16.8 µM (inactive); with SN12C, 17.6 µM (inactive); in the assay with UO-31, 20.8 µM (inactive); in the assay with MOLT-4, 18.7 µM (inactive); with TK-10, 38.5 µM (inactive); with KM12, 21.3 µM (inactive). Further, the GI50 in the assay on 786-0 is 32.6 µM (inactive); with SF-295 it was 35.3 µM (inactive); in the assay with NCI-H522, 18.6 µM (inactive).
